What was measured:
[1] = system: neuroblastoma xenograft tumors; test: Histopathologic analysis of tumors (H/E and TUNEL); format: in vivo, CB-17 SCID mice; details: excised tumors; combination group at 7.5 weeks of treatment
Source text: Histology: All tumors were excised, fixed in 10% (v/v) formalin and processed for immunohistochemical analysis. To obtain adequate tissue for the combination treatment group, two mice were sacrificed at 7.5 weeks of treatment. Paraffin blocks were cut to 5 μm sections and stained with haematoxylin/eosin for morphology evaluation and with Apoptosis Detection System (Promega, Madison, Wis.) for assessment of programmed cell death.
Histopathologic analysis: To further elucidate the mechanisms involved in the tumor regression following treatment with vinblastine, DC101, or the combined therapy, tissue histopathology assessment was undertaken. Cancer cells with high nuclear to cytoplasmic ratio form cuffs around central vessels, and apoptotic cells characterized by pyknotic nuclei and cytoplasmic blebbing, are only evident as a thin rim at the periphery of the cuffs. The nuclei of these cells stain strongly for terminal deoxynucleotidyl transferase (TUNEL) reactivity, as expected for cells undergoing apoptosis. […] There is a close similarity of the appearance of H/E and TUNEL stain. […] Rather than a typical single layer of flattened endothelial cells surrounding the vascular lumen in untreated group, we observed edema, and detachment from surrounding basement membrane and leading to complete vascular wall disintegration and tumor cell death.

[2] = system: SK-N-MC neuroepithelioma or SK-N-AS neuroblastoma xenografts; test: In vivo tumor growth assessment, subcutaneous xenografts; design: species or system CB-17 SCID mice; details: established ~0.75 cm^3 xenografts; DC101 800 μg i.p. every three days; low-dose vinblastine
Procedure: In vivo tumor growth assessment: SK-N-MC, cells were harvested using 1% Trypsin EDTA (GibcoBRL, Gaithesburg, Md.), and single cell suspension of 2×10^6 cells in 0.2 ml of growth media was injected subcutaneously into the flanks of 4-6 week old CB-17 SCID mice (Charles River, St-Constant, Quebec). Approximately 3 weeks later, most tumors had grown to ˜0.75 cm^3, and mice were randomized into groups of 5 animals. Two independent experiments were performed, each totaling 20 animals in 4 groups. The treatment was as follows:
Group I (Control)—0.4 ml of PBS (DC101 vehicle) i.p. every three days and 0.15 ml injectable saline (vinblastine vehicle) i.p. every three days.
Group II—0.4 ml of 2 mg/ml DC101 antibody (800 μg/mouse) (24) every three days and 0.15 ml of injectable saline i.p. every three days
Group III—vinblastine sulfate 0.75 mg/m^2 i.p. bolus at the start of therapy, followed by 1 mg/m^2/day via subcutaneous Alzet osmotic pumps (Alza Corp, Palo Alto, Calif.) for 3 weeks, followed by maintenance therapy with 0.15 ml of 0.067 mg/ml vinblastine sulfate (1.5 mg/m^2) i.p. every three days, and 0.4 ml of PBS i.p. every three days
Group IV—combination of DC101 and vinblastine at doses identical to the single agent groups. […]

SK-N-MC cells = test: In vitro drug sensitivity, 3H-thymidine incorporation; format: cell-based, human; details: 100-400 ng/ml, 24 hours
Source text: (§1) Cells and culture conditions: Neuroblastoma cell lines SK-N-MC, SK-N-AS were obtained from American Type Culture Collection (ATCC) and expanded as a monolayer culture by serial passage on tissue culture plates (Nunc, Denmark) in DMEM, 5% fetal bovine serum (Gibco, Grand Island, N.Y., USA). Human umbilical vein endothelial cells (HUVEC) (Clonetics, San Diego, Calif.) were expanded on 1% gelatin-coated tissue culture plates in MCDB131 culture medium (JRH Biosciences, Lenexa, Kans., USA) supplemented with 5 ng/ml bFGF (R&D, Minneapolis, Minn.), 10 units/ml heparin (Wyeth-Ayerst Canada), 10 ng/ml EGF (UBI, Lake Placid, N.Y.) and 10% fetal bovine serum.
In vitro determination of drug sensitivity: Three thousand cells in 200 μl growth media per well were plated in 96-well flat bottom tissue culture plates (Nunc, Denmark) and incubated at 37° C., 5% CO2 for 24 hours prior to initiation of treatment. The cells were then washed with PBS and treated with 1-500 ng/ml vinblastine sulphate (Calbiochem, La Jolla, Calif.) for 24 hours, in groups of eight wells per dose. […] Incorporated radioactivity was measured on Wallac 1205 BetaPlate Scintillation Counter (Wallac Oy, Finland) and proliferation was expressed as a percentage of ^3H-thymidine in treated cells vs. that in controls. […]

[3] = system: bFGF induced vascularization; test: In vivo Matrigel plug angiogenesis assay; design: species or system Balb/cJ mice; details: DC101 800 μg i.p. and/or vinblastine 1 mg/m^2 i.p. on day 4 and 7, sacrifice day 10
Procedure: In vivo angiogenesis assessment by the Matrigel plug assay (5,25): Matrigel (Collaborative Biomedical Products, Bedford, Mass.) stored at −20° C., was thawed at 4° C. overnight and mixed with 500 ng/ml bFGF. 0.5 ml of this mixture was then injected subcutaneously into the shaved flanks of twenty 6-8 week old female Balb/cJ mice (Jackson Labs, Bar Harbor, Me.). Five mice, used as negative controls, were injected with Matrigel alone. Three days later, treatment mice were randomized into four groups as follows: • Group I—saline i.p., • Group II—800 μg DC101 i.p. • Group III—1 mg/m^2 vinblastine i.p. • Group IV—combination therapy.
All 25 mice were treated on day 4 and 7 and sacrificed on day 10. Blood samples were collected into heparinized tubes by cardiac puncture, centrifuged immediately following their collection, plasma separated and protected from light at 4° C. […] The following day, the plugs were homogenized, centrifuged at 5000 rpm for 10 minutes and supernatant saved in the dark for analysis of fluorescence. Fluorescence readings were obtained on FL600 Fluorescence Plate Reader using a standard curve created by serial dilution of FITC-dextran used for injection. Angiogenic response was expressed as a ratio of Matrigel plug fluorescence:plasma fluorescence.
To address these questions, we repeated the same fluorescence measurement using an in vivo Matrigel plug angiogenesis assay. […]

[4] = mouse, in vivo
Procedure: The body weight, tumor size and general clinical status of the animals were recorded every 2-3 days. Perpendicular tumor diameters were measured using a vernier scale caliper and tumor volume was estimated using the formula for ellipsoid: (width^2×length)/2. Growth curves were statistically analyzed using repeated measures ANOVA. […] As required by institutional guidelines, the mice were sacrificed when tumor size reached 1.5 cm^3 or 7.5-10% of their body weight.
To evaluate this aspect of DC101/vinblastine combination therapy, the health status of the mice was monitored. Weight was plotted at regular intervals and considered a surrogate for evaluation of systemic well being, anorexia, or failure to thrive.

[5] = system: SK-N-AS human neuroblastoma xenografts; test: Tumor perfusion by FITC-Dextran fluorescence; format: in vivo, CB-17 SCID mice; details: vinblastine 1 mg/m^2 i.p. and/or DC101 800 μg i.p. every three days, 10 days
Procedure: Relative tumor vascularity assessed by an FITC-Dextran perfusion assay: The method was designed to assess the relative functionality of the tumor vasculature. 2×10^6 SK-N-AS neuroblastoma cells were injected into the flanks of CB-17 SCID mice. Tumors were allowed to grow to approximately 0.75 cm^3 at which point tumor bearing mice were then treated with 1 mg/m^2 vinblastine i.p. every three days, 800 μg DC101 i.p. every three days, combination of the two agents or saline as a control. […] Fluorescence readings were obtained on a FL600 Fluorescence Plate Reader (Bio-tek Instruments Inc., Winooski, Vt., USA), from a standard curve created by serial dilution of the FITC-dextran used for injection. The ratio of tumor fluorescence:plasma fluorescence was assumed to be reflective of the degree of tumor perfusion.
Tumor perfusion by assessment of intravascular fluorescence: To further explore the possibility that tumor regression induced with treatment using DC101 and vinblastine was indeed due to the vascular injury, rather than a direct anti-tumor cell effect, we assessed tumor perfusion directly by using a FITC-Dextran fluorescence method. […]

[6] = mouse, in vivo; cited from earlier work
HUVEC = test: In vitro drug sensitivity, 3H-thymidine incorporation; format: cell-based, human; details: 24 hours
Source text: as §1
(§2) In vitro determination of drug sensitivity: Three thousand cells in 200 μl growth media per well were plated in 96-well flat bottom tissue culture plates (Nunc, Denmark) and incubated at 37° C., 5% CO2 for 24 hours prior to initiation of treatment. […] The cells were then pulsed for 6 hrs with 2 μCi/well of methyl-^3H-thymidine (Amersham Life Science, Buckinghamshire, England). The plates were frozen, thawed and the DNA harvested onto a filtermat using a Titertek Cell Harvester. Incorporated radioactivity was measured on Wallac 1205 BetaPlate Scintillation Counter (Wallac Oy, Finland) and proliferation was expressed as a percentage of ^3H-thymidine in treated cells vs. that in controls.
(§3) All three cell lines were grown in DMEM with […], but the HUVEC were grown on gelatinized plates and in the presence of additional growth factors (bFGF and EGF).

SK-N-AS cells = test: as above; format: cell-based, human; details: 100-400 ng/ml, 24 hours
Source text: as §1, §2, §3

Compound: CC[C@]1(O)C[C@@H]2CN(CCc3c([nH]c4ccccc34)[C@@](C(=O)OC)(c3cc4c(cc3OC)N(C)[C@H]3[C@@](O)(C(=O)OC)[C@H](OC(C)=O)[C@]5(CC)C=CCN6CC[C@]43[C@@H]65)C2)C1 [vinblastine, vinblastine sulphate]
- tumor histology (H/E, TUNEL apoptosis) [1]: increase in the width of the apoptotic rims
- effect on tumor growth [2]: significant, albeit not sustained, regression of tumor growth
- inhibition of proliferation (3H-thymidine incorporation) (SK-N-MC cells): strongly inhibited
- bFGF induced vascularization of Matrigel plug (plug:plasma fluorescence) [3]: 62.5 % of the positive control group
- body weight / toxicity profile [4]: some weight gain retardation, but the differences never became significantly different from controls
- decrease in tumor perfusion (tumor:plasma fluorescence) [5]: 41%
- MTD in mice relative to MTD in humans [6]: 4-5 times
- inhibition of proliferation (3H-thymidine incorporation) (HUVEC; 0.78 ng/ml): retained almost the same degree of inhibitory activity
- inhibition of proliferation (3H-thymidine incorporation) (HUVEC; 100-400 ng/ml): strongly inhibited, especially HUVEC
- inhibition of proliferation (3H-thymidine incorporation) (SK-N-AS cells): strongly inhibited

Reference: patent US7740841B1, “Therapeutic method for reducing angiogenesis” (Sunnybrook Health Science Center, priority 2000, dated 2010)
